# Measurements: patent publication US6506749B2, “7-oxo-pyridopyrimidines (I)” (Syntex (U.S.A.) LLC, priority 2000, dated 2003)
# Where a name gives a salt, the structure may show the parent alone.
# Test system: not given
# Assay: not given
# Conditions: not given
row,SMILES,melting point [°C]
1,Cl.Cn1c(=O)c(-c2ccccc2Cl)cc2cnc(NC3(CO)CCCCC3)nc21,185 to 188.6
2,Cl.O=c1c(-c2ccccc2Cl)cc2cnc(N[C@H]3CC[C@H](O)CC3)nc2n1C1CC1,241.7 to 242.3
3,Cn1c(=O)c(-c2ccccc2Cl)cc2cnc(N[C@H]3CC[C@H](N)CC3)nc21 (as salt: HCl) [Example 38],163.4 to 171.1
4,O=c1c(-c2ccccc2Cl)cc2cnc(N[C@H]3CC[C@H](O)CC3)nc2n1Cc1ccccc1 (as salt: HCl) [Example 41],202 to 206
5,O=C1c2ccccc2C(=O)N1CCn1c(=O)c(-c2ccccc2Cl)cc2cnc(N[C@H]3CC[C@H](O)CC3)nc21 (as salt: HCl) [Example 77],208 to 210
6,"Cn1c(=O)c(-c2ccccc2Cl)cc2cnc(NC3CCSCC3)nc21 (as salt: HCl) [Example 78, 2-(4-tetrahydrothiopyranylamino)-6-(2-chlorophenyl)-8-methyl-8H-pyrido[2,3-d]pyrimidin-7-one]",232.1 to 233.1
7,CS(=O)(=O)N1CCC(Nc2ncc3cc(-c4ccccc4Cl)c(=O)n(-c4ccc(F)cc4)c3n2)CC1 (as salt: HCl) [Example 96],165 to 169
8,"CS(=O)(=O)N[C@H]1CC[C@H](Nc2ncc3c(n2)=NC(=O)C(c2ccccc2Cl)C=3)CC1 (stereo partly drawn) (as salt: hydrochloric acid salt) [Example 16, 2-(trans-4-methanesulfonylaminocyclohexylamino)-6-(2-chlorophenyl)-pyrido[2,3-d]pyrimidin-7-one]",> 300
9,"O=c1[nH]c2nc(N[C@H]3CC[C@H](O)CC3)ncc2cc1-c1ccccc1Cl (as salt: hydrochloride) [Example 11, 2-(trans-4-hydroxycyclohexylamino)-6-(2-chlorophenyl)-pyrido[2,3-d]pyrimidin-7-ol]",191.1 to 194.3
10,"Cn1c(=O)c(-c2ccccc2Cl)cc2cnc(N[C@H]3CC[C@H](N)CC3)nc21 (as salt: hydrochloride) [Example 13, 2-(trans-4-aminocyclohexylamino)-6-(2-chlorophenyl)-8-methyl-pyrido[2,3-d]pyrimidin-7-one]",190.3 to 191.4
11,"Cn1c(=O)c(-c2ccccc2Cl)cc2cnc(N[C@H]3CC[C@H](NS(C)(=O)=O)CC3)nc21 (as salt: hydrochloride) [Example 14, 2-(trans-4-methanesulfonylaminocyclohexylamino)-6-(2-chlorophenyl)-8-methyl-pyrido[2,3-d]pyrimidin-7-one]",260.9 to 261.1
12,O=C1CCC(Nc2ncc3cc(-c4ccccc4Cl)c(=O)n(CC(F)(F)F)c3n2)CC1 (as salt: hydrochloride) [Example 59],251.2 to 252
13,CS(=O)(=O)N1CCC(Nc2ncc3cc(-c4ccccc4Cl)c(=O)n(C4CC4)c3n2)CC1 (as salt: hydrochloride) [Example 88],128 to 141.5
14,CCS(=O)(=O)CCC(C)Nc1ncc2cc(-c3ccccc3Cl)c(=O)n(C)c2n1 (centres unmarked) (as salt: hydrochloride) [Example 102],160.1 to 167
15,Cn1c(=O)c(-c2ccccc2Cl)cc2cnc(N[C@H]3CC[C@H](O)CC3)nc21 (as salt: salt) [Cpd 1],163.4 to 171.1
16,Cn1c(=O)c(-c2ccccc2Cl)cc2cnc(NC3(CO)CCCC3)nc21 (as salt: salt) [Cpd 2],213.7 to 214.6
17,N[C@H]1CC[C@H](Nc2ncc3cc(-c4ccccc4Cl)c(=O)[nH]c3n2)CC1 (as salt: salt) [Cpd 17],> 300
18,Cn1c(=O)c(-c2ccccc2Cl)cc2cnc(NC3CCC(OC=O)CC3)nc21 (centres unmarked) [Cpd 4],196.1 to 196.6
19,CC(=O)OC1CCC(Nc2ncc3cc(-c4ccccc4Cl)c(=O)n(C)c3n2)CC1 (centres unmarked) [Cpd 5],200.9 to 201.2
20,Cn1c(=O)c(-c2ccccc2Cl)cc2cnc(NC3CCC4(CC3)OCCCO4)nc21 [Cpd 8],196.1 to 196.5
21,O=CO[C@H]1CC[C@H](Nc2ncc3cc(-c4ccccc4Cl)c(=O)[nH]c3n2)CC1 [Cpd 19],> 300
22,CC(C)(O)Cn1c(=O)c(-c2ccccc2Cl)cc2cnc(NC3CCOCC3)nc21 [Cpd 117],189 to 191.5
23,CCCS(=O)(=O)N1CCC(Nc2ncc3cc(-c4ccccc4C)c(=O)n(C)c3n2)CC1.Cl [Cpd 126],211.7 to 212.6
24,Cc1ccccc1-c1cc2cnc(NC3CCN(S(=O)(=O)CC(F)(F)F)CC3)nc2n(C)c1=O.Cl [Cpd 128],200 to 204
25,CCn1c(=O)c(-c2ccccc2Cl)cc2cnc(NC3CCOCC3)nc21.Cl [Cpd 136],185.3 to 190.1
26,Cc1ccccc1-c1cc2cnc(NC3CCSCC3)nc2n(C)c1=O [Cpd 140],186.6 to 188.1
27,Cl.N#CCn1c(=O)c(-c2ccccc2Cl)cc2cnc(N[C@H]3CC[C@H](O)CC3)nc21 [Example 44],232.1 to 233.4
28,O=c1c(-c2ccccc2Cl)cc2cnc(N[C@H]3CC[C@H](O)CC3)nc2n1CC(F)(F)F [Example 55],227.2 to 230.4
29,CN1CCN(Nc2ncc3cc(-c4ccccc4Cl)c(=O)n(C)c3n2)CC1 [Example 85],125.7 to 128.1

# Target: T1, p38 MAP kinase (Homo sapiens, UniProt Q16539)
# T1 construct: made in house; host or cells: E. coli (co-expressed with SEK-1 and MEKK to phosphorylate p38)
# T1 sequence (Q16539 whole entry): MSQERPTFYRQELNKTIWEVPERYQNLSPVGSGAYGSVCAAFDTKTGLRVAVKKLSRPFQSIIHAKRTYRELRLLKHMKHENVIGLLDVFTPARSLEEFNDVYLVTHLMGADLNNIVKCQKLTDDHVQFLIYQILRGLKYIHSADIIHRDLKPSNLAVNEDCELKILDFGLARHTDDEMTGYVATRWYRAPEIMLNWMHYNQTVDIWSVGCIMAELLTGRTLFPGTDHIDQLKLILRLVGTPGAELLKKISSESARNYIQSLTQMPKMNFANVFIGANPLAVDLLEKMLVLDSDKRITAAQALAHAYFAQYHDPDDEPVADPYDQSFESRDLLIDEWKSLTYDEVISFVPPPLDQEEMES
# Assay: in vitro inhibition of p-38 (MAP) kinase, transfer of γ-33P from ATP to Myelin Basic Protein
# Type: biochemical
# Conditions: phosphorylated recombinant p38 MAP kinase; MBP substrate, γ-33P-ATP; 30° C.
# Method: This example illustrate an assay protocol for determining in vitro inhibition of p-38 (MAP) Kinase.
# The phosphorylated form of the recombinant p38 MAP kinase was expressed with SEK-1 and MEKK in E. Coli and then purified by affinity chromatography using a Nickel column.
# The phosphorylated p38 MAP kinase was diluted in kinase buffer (20 mM 3-(N-morpholino)propanesulfonic acid, pH 7.2, 25 mM β-glycerol phosphate, 5 mM ethylene glycol-bis(beta-aminoethyl ether)-N,N,N′,N′-tetraacetic acid, 1 mM sodium vanadate, 1 mM dithiothreitol, 40 mM magnesium chloride). Test compound dissolved in DMSO or only DMSO (control) was added and the samples were incubated for 10 min at 30° C. The kinase reaction was initiated by the addition of a substrate cocktail containing MBP and γ-^33P-ATP. After incubating for an additional 20 min at 30° C., the reaction was terminated by adding 0.75% phosphoric acid. The phosphorylated MBP was then separated from the residual γ-^33P-ATP using a phosphocellulose membrane (Millipore, Bedford, Mass.) and quantitated using a scintillation counter (Packard, Meriden, Conn.).
row,SMILES,IC50 [nM]
1,Cn1c(=O)c(-c2ccccc2Cl)cc2cnc(N[C@H]3CC[C@H](O)CC3)nc21 [Cpd 1],20.5
2,Cn1c(=O)c(-c2ccccc2Cl)cc2cnc(NC3(CO)CCCC3)nc21 [Cpd 2],41.9
3,CCCS(=O)(=O)N1CCC(Nc2ncc3cc(-c4ccccc4C)c(=O)n(C)c3n2)CC1.Cl [Cpd 126],0.3
4,Cc1ccccc1-c1cc2cnc(NC3CCN(S(=O)(=O)CC(F)(F)F)CC3)nc2n(C)c1=O.Cl [Cpd 128],0.6
5,CCn1c(=O)c(-c2ccccc2Cl)cc2cnc(NC3CCOCC3)nc21.Cl [Cpd 136],8.2
6,Cn1c(=O)c(-c2ccccc2Cl)cc2cnc(N[C@H]3CC[C@H](N)CC3)nc21 [Example 38],6.2
7,O=c1c(-c2ccccc2Cl)cc2cnc(N[C@H]3CC[C@H](O)CC3)nc2n1Cc1ccccc1 [Example 41],5.1
8,Cl.N#CCn1c(=O)c(-c2ccccc2Cl)cc2cnc(N[C@H]3CC[C@H](O)CC3)nc21 [Example 44],7.8
9,Cn1c(=O)c(-c2ccccc2Cl)cc2cnc(NC3CCN(C(N)=O)CC3)nc21 [compound 11],4.8
10,Cn1c(=O)c(-c2ccccc2Cl)cc2cnc(NC3CCN(CC#N)CC3)nc21 [compound 24],35.5
11,Cn1c(=O)c(-c2ccccc2Cl)cc2cnc(NC3CCC4(CC3)NC(=O)NC4=O)nc21 (centres unmarked) [compound 29],41.5
12,Cn1c(=O)c(-c2ccccc2Cl)cc2cnc(N[C@H]3CC[C@H](NS(C)(=O)=O)CC3)nc21 [compound 37],30.5
